Laboratory results reported in patent publication US7951775B2, “Methods and pharmaceutical compositions for GnRH-I and GnRH-II modulation of T-cell activity, adhesion, migration and extravasation” (priority 2001, dated 2011).
Entries after “also recorded” stand apart in the source; their conditions may differ.

Experiments:
[1] = tested on: normal human T-cells; assay: Double immunofluorescence staining for VLA-6 laminin-binding integrin and TCR; type: cell-based; settings: untreated cells about 75% double positive; data not shown
From the text: Finally, the possibility that the stimulation of normal human T-cells by either GnRH-I, GnRH-II or anti-CD3+ anti-CD28 mAbs, elevates not only the non-integrin 67 kDa LR but also the expression level of the VLA-6 laminin-binding integrin (known to be expressed on T-cells) was investigated. […] Thus stimulation by GnRH-II and GnRH-I (as well as TCR-activation) primarily increases-the-protein surface expression of the non-integrin 67 kDa LR, but not of the VLA-6 laminin binding integrin.

[2] = tested on: EL-4 T-lymphoma cells; assay: Homing of GnRH-treated EL-4 T-lymphoma in vivo into specific organs of normal syngeneic mice; set-up: species or system mouse; settings: EL-4 cells treated ex vivo 10 nM; for mean number of EL-4 labeled cells detected in the bone marrow: 48 h, C57BL/6 recipients n=5, untreated 149825±8424; for increase in entry into bone marrow over untreated control cells: C57BL/6 recipients; for entry of EL-4 cells into the spleen / level of EL-4 cells entry into thymus, kidney and liver, or their number in the plasma: vs untreated cells
Protocol: Mouse EL-4 T-lymphoma cells were incubated without any further treatment or with either GnRH-I or GnRH-II (10 nM) for […] (37° C., 7.5% CO2 in a humidified incubator) and then washed, counted, and fluorescently labeled with BCECF AM (30 minutes 37° C., 7.5% CO2 humidified incubator), as described above.
Normal syngeneic C57BL/6 female recipient mice were then subjected to 300 rad total body irradiation, and several hours later inoculated I.P with 5×10^6 cells/mouse of either untreated or GnRH-treated EL-4 lymphoma cells. In parallel, samples from the treated and GnRH inoculated EL-4 cells were tested by double immunofluorescence (as described above) for the level of their 67 kD LR and TCRαβ. After […], the spleen, thymus, kidney, liver, bone marrow, and a fixed volume of blood were removed from the recipient mice into tubes containing 10 ml PBS, and cell suspensions were prepared from each organ of each individual mouse. Following further dilution in PBS for the kidney (1:3) and liver (1:10), the number of fluorescent cells, as well as the total number of cells in each tube, were counted by flow cytometry (FACSORT).
To assess whether exposure of EL-4 T-lymphoma cells to GnRH modulated their immigration and organ invasion profiles in vivo, the EL-4 cells were treated ex vivo with GnRH-I or GnRH-II (10 nM, 48 h), loaded with a fluorescent dye, and inoculated into normal syngeneic C57BL/6 (H-2b) recipient mice. After 48 hours, the spleen, thymus, kidney, liver, bone marrow, and a fixed volume of blood were removed, individual cells suspensions were prepared and the number of labeled immigrating cells, as well as the total number of cells present in each organ (labeled+non-labeled) was counted by flow cytometry.

[3] = tested on: normal human T-cells; assay: Double immunofluorescence staining (FACS) for surface 67 kDa laminin receptor and TCR; type: cell-based; settings: for 67 kDa LR and TCR positive (double positive) cell population: 10 nM, 48 hours, 37° C., untreated 35.7%; for surface expression of the 67 kDa LR, in words: vs untreated normal human T-cells
Protocol: Normal human T-cells, isolated from fresh peripheral blood lymphocytes, or EL-4 T-lymphocyte cells were subjected to double immunofluorescence staining, using a mouse monoclonal anti-67 kDa LR antibody (100 μl of 1:20 dilution per 1×10^6 cells/tube; 30 minutes on ice), or normal mouse sera for control. The cells were then stained with an FITC-conjugated goat anti-mouse IgG (100 μl of 1:100 dilution), and PE-conjugated mouse anti-human TCR αβ mAb (2 μl of stock). Cells that were stained only with the second and third antibodies served as additional negative controls. Fluorescence profiles were recorded in a FACSORT. To determine whether GnRH-II and GnRH-I trigger not only the gene transcription but also the surface expression of the 67 kDa LR, normal human T-cells were treated with either GnRH-II or GnRH-I for 18-66 h and subjected to double immunofluorescence staining using a monoclonal antibody (mAb) that is specific for the 67 kDa LR, and a phycoerythrin (PE)-conjugated anti-TCRαβ mAb (to confirm the T-cell origin of the cells). FIGS. 2A-2C show the staining for the untreated, GnRH-I treated and GnRH-II treated T-cells, respectively. The FACS profiles can be interpreted by division according to four categories: 1. Negative staining for both mAbs (double negative, lower left quadrant); 2. Single positive staining only with the anti-LR mAb (lower right quadrant), 3. Single positive staining only with the anti-TCR mAb (upper left quadrant); 4. Double positive staining with both mAbs (upper right quadrant). […] In different experiments, each using freshly isolated T-cells from a different human donor, both GnRH II and GnRH I repeatedly elevated the laminin receptor expression level, but the magnitude of elevation varied within a range of 6-40%. Such variations between T-cell populations originating from different donors are often observed in respect to various T-cell features and functions.

[4] = tested on: normal human T-cells; assay: In-vitro chemotactic migration assay towards SDF-1 through laminin-coated filters; type: cell-based; settings: 10 nM, at least 18 h pretreatment; four independent experiments
Protocol: Normal human T-cells (1×10^6 cells/well in rest medium) were pretreated with GnRH-I or GnRH-II (10 nM, >18 hours, 37° C., 7.5% CO2 humidified incubator), washed, resuspended in adhesion medium and fluorescently labeled (50 μg/ml, 30 minutes, 37° C., 7.5% CO2 humidified incubator) with 2′,7′-bis-(2-carboxyethyl)-5-(and-6)-carboxyfluorescein acetoxymethyl (BCECF AM, Molecular Probes, Eugene, Oreg.). The cells were then washed, resuspended in adhesion medium, and added to the upper chambers (2×10^5 cells per 100 μl well) of a 24-well chemotaxis microchamber plate (Corning Inc., Corning, N.Y.). The two compartments of the microchambers were separated by polycarbonate filters ([…] pore size) pre-coated with laminin ([…], about 1.5 hour, 37° C.). […]
Adhesion of T-cells to components of the basement membrane is a crucial step in the series of events that eventually enable T-cells to migrate and extravasate from the blood stream to specific tissues. […] To determine whether GnRH can induce T-cells to migrate towards a chemoattractant, we made use of the Boyden chamber migration assay and scored the number of fluorescence-labeled normal human T-cells which migrated from a medium-containing upper chamber to a chemoattractant-containing lower chamber. […]

Molecule	expression level of VLA-6 laminin-binding integrin [1]	mean number of EL-4 labeled cells detected in the bone marrow [2]	increase in entry into bone marrow over untreated control cells [2] [%]	entry of EL-4 cells into the spleen [2]	level of EL-4 cells entry into thymus, kidney and liver, or their number in the plasma [2]	67 kDa LR and TCR positive (double positive) cell population [3] [%]	surface expression of the 67 kDa LR, in words [3]	migration of T-cells towards chemoattractant SDF-1 [4]
pGlu-His-Trp-Ser-Tyr-Gly-Leu-Arg-Pro-Gly-NH2 [GnRH-I]	unaffected	321400±15165	115	significant enhanced entry	did not affect	72.4	significantly increased	directly increase the migration potential; also recorded: significantly augments
GnRH-II: unique ten amino acid long neuropeptide, 70% homologous in peptide structure to GnRH-I, encoded by its own gene (peptide) peptide: QHWSHGWYPGGKRALSSAQDPQNALRPPGRALDTAAGSPVQTAHGLPSDALAPLDDSMPWEGRTTAQWSLHRKRHLARTLLTAAREPRPAPPSSNKV	unaffected	219280±14003	46	significant enhanced entry	did not affect	74.3	significantly increased	directly increase the migration potential; also recorded: significantly augments
